Values joined by “and” are separate entries in the source; they are usually repeats but may differ in a detail not shown here. Equal values may be shown once.
How the values were obtained:
[1] = xn = mol fraction of the nth substance listed; details: 101.3 kPa, Liquid, Falling or rolling sphere viscometry
[2] = Liquid; for viscosity: 101.3 kPa, Falling or rolling sphere viscometry

COC(=O)OC [dimethyl carbonate] + C1CCCCC1
[1]
Details	viscosity [mPa·s]
293.15 K, x1 = 0.0495	0.886
293.15 K, x1 = 0.0987	0.814
293.15 K, x1 = 0.2078	0.709
293.15 K, x1 = 0.2961	0.66
293.15 K, x1 = 0.3974	0.626
293.15 K, x1 = 0.5014	0.608
293.15 K, x1 = 0.6002	0.6
293.15 K, x1 = 0.7028	0.593
293.15 K, x1 = 0.7994	0.59
293.15 K, x1 = 0.9017	0.597
293.15 K, x1 = 0.9513	0.609
293.15 K, x1 = 1	0.626
298.15 K, x1 = 0.0378	0.833
298.15 K, x1 = 0.0808	0.776
298.15 K, x1 = 0.1764	0.681
298.15 K, x1 = 0.2896	0.619
298.15 K, x1 = 0.388	0.587
298.15 K, x1 = 0.4938	0.567
298.15 K, x1 = 0.5908	0.557
298.15 K, x1 = 0.6864	0.553
298.15 K, x1 = 0.7918	0.555
298.15 K, x1 = 0.8976	0.561
298.15 K, x1 = 0.9503	0.572
298.15 K, x1 = 1	0.585
303.15 K, x1 = 0.0391	0.758
303.15 K, x1 = 0.0931	0.703
303.15 K, x1 = 0.1875	0.632
303.15 K, x1 = 0.2908	0.581
303.15 K, x1 = 0.3897	0.545
303.15 K, x1 = 0.4962	0.522
303.15 K, x1 = 0.5958	0.508
303.15 K, x1 = 0.6909	0.504
303.15 K, x1 = 0.7975	0.507
303.15 K, x1 = 0.8912	0.522
303.15 K, x1 = 0.9441	0.528
303.15 K, x1 = 1	0.536
313.15 K, x1 = 0.101	0.605
313.15 K, x1 = 0.1482	0.574
313.15 K, x1 = 0.2563	0.524
313.15 K, x1 = 0.3646	0.495
313.15 K, x1 = 0.4661	0.477
313.15 K, x1 = 0.572	0.468
313.15 K, x1 = 0.6633	0.465
313.15 K, x1 = 0.7699	0.47
313.15 K, x1 = 0.8688	0.479
313.15 K, x1 = 0.9757	0.491
313.15 K, x1 = 0.9935	0.493
313.15 K, x1 = 1	0.494

COC(=O)OC [dimethyl carbonate] + CCCCCC
[1]
Details	viscosity [mPa·s]
293.15 K, x1 = 0.0722	0.312
293.15 K, x1 = 0.1448	0.315
293.15 K, x1 = 0.2286	0.325
293.15 K, x1 = 0.3026	0.338
293.15 K, x1 = 0.4102	0.359
293.15 K, x1 = 0.5062	0.384
293.15 K, x1 = 0.6026	0.412
293.15 K, x1 = 0.7052	0.451
293.15 K, x1 = 0.7974	0.494
293.15 K, x1 = 0.901	0.552
293.15 K, x1 = 0.9506	0.585
293.15 K, x1 = 1	0.626
298.15 K, x1 = 0.082	0.306
298.15 K, x1 = 0.1269	0.311
298.15 K, x1 = 0.2131	0.322
298.15 K, x1 = 0.3197	0.336
298.15 K, x1 = 0.3787	0.345
298.15 K, x1 = 0.4712	0.362
298.15 K, x1 = 0.5121	0.37
298.15 K, x1 = 0.6067	0.392
298.15 K, x1 = 0.6987	0.423
298.15 K, x1 = 0.842	0.487
298.15 K, x1 = 0.9248	0.53
298.15 K, x1 = 0.9615	0.555
298.15 K, x1 = 1	0.585
303.15 K, x1 = 0.0468	0.287
303.15 K, x1 = 0.0991	0.293
303.15 K, x1 = 0.1951	0.305
303.15 K, x1 = 0.295	0.314
303.15 K, x1 = 0.3832	0.327
303.15 K, x1 = 0.4865	0.342
303.15 K, x1 = 0.5899	0.363
303.15 K, x1 = 0.696	0.394
303.15 K, x1 = 0.7947	0.433
303.15 K, x1 = 0.8939	0.478
303.15 K, x1 = 0.9436	0.507
303.15 K, x1 = 1	0.536
313.15 K, x1 = 0.0495	0.267
313.15 K, x1 = 0.1	0.274
313.15 K, x1 = 0.2092	0.286
313.15 K, x1 = 0.3093	0.296
313.15 K, x1 = 0.4043	0.306
313.15 K, x1 = 0.4941	0.321
313.15 K, x1 = 0.6052	0.347
313.15 K, x1 = 0.7063	0.379
313.15 K, x1 = 0.8046	0.416
313.15 K, x1 = 0.9014	0.458
313.15 K, x1 = 0.9497	0.477
313.15 K, x1 = 1	0.494

COC(=O)OC [dimethyl carbonate] + CCCCCCC
[1]
Details	viscosity [mPa·s]
293.15 K, x1 = 0.05	0.407
293.15 K, x1 = 0.094	0.405
293.15 K, x1 = 0.2039	0.407
293.15 K, x1 = 0.324	0.413
293.15 K, x1 = 0.4062	0.422
293.15 K, x1 = 0.5059	0.441
293.15 K, x1 = 0.6099	0.462
293.15 K, x1 = 0.6987	0.488
293.15 K, x1 = 0.8086	0.527
293.15 K, x1 = 0.9029	0.567
293.15 K, x1 = 0.9504	0.594
293.15 K, x1 = 1	0.626
298.15 K, x1 = 0.0594	0.383
298.15 K, x1 = 0.1204	0.384
298.15 K, x1 = 0.2132	0.385
298.15 K, x1 = 0.3135	0.388
298.15 K, x1 = 0.4018	0.397
298.15 K, x1 = 0.4716	0.406
298.15 K, x1 = 0.6051	0.43
298.15 K, x1 = 0.6946	0.452
298.15 K, x1 = 0.8031	0.489
298.15 K, x1 = 0.902	0.528
298.15 K, x1 = 0.9477	0.554
298.15 K, x1 = 1	0.585
303.15 K, x1 = 0.0586	0.37
303.15 K, x1 = 0.0873	0.367
303.15 K, x1 = 0.1996	0.368
303.15 K, x1 = 0.299	0.375
303.15 K, x1 = 0.4009	0.388
303.15 K, x1 = 0.5081	0.403
303.15 K, x1 = 0.6069	0.426
303.15 K, x1 = 0.6979	0.454
303.15 K, x1 = 0.8051	0.495
303.15 K, x1 = 0.9069	0.518
303.15 K, x1 = 0.9638	0.518
303.15 K, x1 = 1	0.536
313.15 K, x1 = 0.0649	0.33
313.15 K, x1 = 0.1157	0.328
313.15 K, x1 = 0.3432	0.334
313.15 K, x1 = 0.4378	0.341
313.15 K, x1 = 0.5458	0.355
313.15 K, x1 = 0.6259	0.37
313.15 K, x1 = 0.7191	0.393
313.15 K, x1 = 0.8128	0.416
313.15 K, x1 = 0.8798	0.443
313.15 K, x1 = 0.9536	0.475
313.15 K, x1 = 0.9822	0.485
313.15 K, x1 = 1	0.494

COC(=O)OC [dimethyl carbonate] + CCCCCCCC
[1]
Details	viscosity [mPa·s]
293.15 K, x1 = 0.0513	0.532
293.15 K, x1 = 0.0997	0.524
293.15 K, x1 = 0.2027	0.508
293.15 K, x1 = 0.3063	0.506
293.15 K, x1 = 0.3994	0.502
293.15 K, x1 = 0.5123	0.507
293.15 K, x1 = 0.6078	0.512
293.15 K, x1 = 0.7137	0.524
293.15 K, x1 = 0.8055	0.541
293.15 K, x1 = 0.9061	0.575
293.15 K, x1 = 0.9516	0.596
293.15 K, x1 = 1	0.626
298.15 K, x1 = 0.0558	0.504
298.15 K, x1 = 0.096	0.498
298.15 K, x1 = 0.1488	0.489
298.15 K, x1 = 0.2289	0.478
298.15 K, x1 = 0.2947	0.477
298.15 K, x1 = 0.4216	0.474
298.15 K, x1 = 0.4883	0.475
298.15 K, x1 = 0.5931	0.479
298.15 K, x1 = 0.6867	0.491
298.15 K, x1 = 0.7879	0.509
298.15 K, x1 = 0.8873	0.541
298.15 K, x1 = 0.9502	0.561
298.15 K, x1 = 1	0.585
303.15 K, x1 = 0.0519	0.478
303.15 K, x1 = 0.0827	0.474
303.15 K, x1 = 0.1947	0.457
303.15 K, x1 = 0.2829	0.452
303.15 K, x1 = 0.3948	0.45
303.15 K, x1 = 0.4942	0.448
303.15 K, x1 = 0.5964	0.45
303.15 K, x1 = 0.6983	0.46
303.15 K, x1 = 0.7886	0.473
303.15 K, x1 = 0.8946	0.5
303.15 K, x1 = 0.9545	0.52
303.15 K, x1 = 1	0.536
313.15 K, x1 = 0.0512	0.432
313.15 K, x1 = 0.1005	0.43
313.15 K, x1 = 0.186	0.419
313.15 K, x1 = 0.301	0.413
313.15 K, x1 = 0.4072	0.409
313.15 K, x1 = 0.5002	0.41
313.15 K, x1 = 0.6042	0.417
313.15 K, x1 = 0.709	0.43
313.15 K, x1 = 0.7993	0.446
313.15 K, x1 = 0.8465	0.459
313.15 K, x1 = 0.9524	0.485
313.15 K, x1 = 1	0.494

CCCCCCC [heptane]
[2]
Details	viscosity
293.15 K	0.411 mPa·s
298.15 K	0.388 mPa·s
303.15 K	0.37 mPa·s and 0.375 mPa·s
313.15 K	0.334 mPa·s

Details	mass density [kg/m3]
[2], 298.15 K, 101.33 kPa, Vibrating tube method	679.4

CCCCCCC [heptane] + CCOC(=O)OCC
[1], x2 = 0
Details	viscosity [mPa·s]
293.15 K	0.411
298.15 K	0.388
303.15 K	0.375
313.15 K	0.334

CCCCCCC [heptane] + COC(=O)OC
[1], x2 = 0
Details	viscosity [mPa·s]
293.15 K	0.411
298.15 K	0.388
303.15 K	0.37
313.15 K	0.334

CCCCCC [hexane] + CCOC(=O)OCC
[1], x2 = 0
Details	viscosity [mPa·s]
293.15 K	0.313
298.15 K	0.301
303.15 K	0.282
313.15 K	0.258

CCCCCC [hexane] + COC(=O)OC
[1], x2 = 0
Details	viscosity [mPa·s]
293.15 K	0.313
298.15 K	0.301
303.15 K	0.282
313.15 K	0.258

CCCCCCCC [octane] + CCOC(=O)OCC
[1], x2 = 0
Details	viscosity [mPa·s]
293.15 K	0.545
298.15 K	0.513
303.15 K	0.484
313.15 K	0.434

CCCCCCCC [octane] + COC(=O)OC
[1], x2 = 0
Details	viscosity [mPa·s]
293.15 K	0.545
298.15 K	0.513
303.15 K	0.484
313.15 K	0.434

Reference: the NIST ThermoML archive (doi:10.1021/je020131a)
